The term IC50 denotes the concentration at which inhibition is half-maximal. For orientation: EC50 means the concentration that produces a half-maximal response.

These results are taken from patent publication US20160222014A1, “COMPOUNDS FOR REGULATING FAK AND/OR SRC PATHWAYS” (ASANA BIOSCIENCES, LLC, priority 2013, published 2016).

The target of one assay is JAK2 (Homo sapiens, UniProt O60674). The experiment in a line: JAK2 biochemical potency. To be noted: read-out: JAK2 HTRF IC50.
The next assay has as its target T1, AURKB (Aurora B) enzyme (Homo sapiens, UniProt Q96GD4).
T1 construct: purchased Invitrogen PVR 130
In words: Aurora B HTRF assay. The class given is biochemical. The settings on record: read-out: AuroraB IC50. The essentials: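 Enzyme (5 nM final) and ULight-labelled PLK Ser137 peptide (50 nM) reacted 1 h at room temperature; a 30 μM final component was also present. Detection used EDTA-containing buffer with europium anti-phospho-PLK(Ser137) antibody at 2 nM, 1 h, then time-resolved FRET readout.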
For orientation: TR-FRET usually uses a lanthanide donor and a delayed reading to cut background.

The target of assay [1] is T2, FAK phosphorylated at Y397 in HEK-FAK cell line overexpressing human FL FAK protein (Homo sapiens, UniProt Q05397).
T2 construct: expressed in transfected cells
T2 sequence (Q05397 whole entry): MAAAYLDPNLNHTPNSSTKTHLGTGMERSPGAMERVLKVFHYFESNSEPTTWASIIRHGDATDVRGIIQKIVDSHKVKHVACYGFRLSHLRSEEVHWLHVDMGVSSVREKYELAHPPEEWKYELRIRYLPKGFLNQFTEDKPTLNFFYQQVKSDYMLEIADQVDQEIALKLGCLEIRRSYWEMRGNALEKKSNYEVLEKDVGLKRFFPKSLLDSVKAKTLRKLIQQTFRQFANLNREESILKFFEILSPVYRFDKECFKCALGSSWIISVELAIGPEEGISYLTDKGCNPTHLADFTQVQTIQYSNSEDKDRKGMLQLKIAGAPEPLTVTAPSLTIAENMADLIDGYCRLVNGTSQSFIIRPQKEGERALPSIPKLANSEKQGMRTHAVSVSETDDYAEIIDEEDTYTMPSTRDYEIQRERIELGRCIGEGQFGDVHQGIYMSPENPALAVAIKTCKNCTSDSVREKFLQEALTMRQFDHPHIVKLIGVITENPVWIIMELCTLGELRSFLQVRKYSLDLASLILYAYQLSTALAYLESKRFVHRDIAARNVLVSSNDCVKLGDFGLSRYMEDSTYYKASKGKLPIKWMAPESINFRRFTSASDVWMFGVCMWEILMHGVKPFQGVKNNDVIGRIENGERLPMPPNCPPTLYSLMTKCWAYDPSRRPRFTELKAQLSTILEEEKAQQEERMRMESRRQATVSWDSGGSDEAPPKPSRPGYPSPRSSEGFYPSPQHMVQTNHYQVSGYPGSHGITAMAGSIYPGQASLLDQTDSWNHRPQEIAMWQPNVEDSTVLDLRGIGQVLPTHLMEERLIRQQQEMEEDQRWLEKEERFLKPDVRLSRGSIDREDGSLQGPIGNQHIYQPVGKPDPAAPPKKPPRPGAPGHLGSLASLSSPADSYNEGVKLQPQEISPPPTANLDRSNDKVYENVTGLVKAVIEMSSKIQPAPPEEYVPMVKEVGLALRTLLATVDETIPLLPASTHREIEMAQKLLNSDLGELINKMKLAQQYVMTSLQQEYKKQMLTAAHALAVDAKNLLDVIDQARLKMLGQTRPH
The experiment in a line: Cell based assay, Phospho-FAK ELISA. To be noted: HEK stb; read-out: pFAK EC50 (μM) HEK stb. The essentials:
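Stable HEK293 line overexpressing full-length human FAK, kept under 0.8 mg/mL Zeocin. In lysates, FAK Y397 autophosphorylation was measured by sandwich ELISA: total-FAK capture antibody, biotinylated pY397-specific detection antibody, streptavidin-HRP with TMB substrate.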
In general terms: In an ELISA, binding on a coated surface is turned into a signal by an enzyme label.

For a further assay, the target named is T3, Phospho Src(Y416) (Homo sapiens, UniProt P12931).
T3 construct: endogenous in cells; host or cells: Panc1
T3 sequence (P12931 whole entry): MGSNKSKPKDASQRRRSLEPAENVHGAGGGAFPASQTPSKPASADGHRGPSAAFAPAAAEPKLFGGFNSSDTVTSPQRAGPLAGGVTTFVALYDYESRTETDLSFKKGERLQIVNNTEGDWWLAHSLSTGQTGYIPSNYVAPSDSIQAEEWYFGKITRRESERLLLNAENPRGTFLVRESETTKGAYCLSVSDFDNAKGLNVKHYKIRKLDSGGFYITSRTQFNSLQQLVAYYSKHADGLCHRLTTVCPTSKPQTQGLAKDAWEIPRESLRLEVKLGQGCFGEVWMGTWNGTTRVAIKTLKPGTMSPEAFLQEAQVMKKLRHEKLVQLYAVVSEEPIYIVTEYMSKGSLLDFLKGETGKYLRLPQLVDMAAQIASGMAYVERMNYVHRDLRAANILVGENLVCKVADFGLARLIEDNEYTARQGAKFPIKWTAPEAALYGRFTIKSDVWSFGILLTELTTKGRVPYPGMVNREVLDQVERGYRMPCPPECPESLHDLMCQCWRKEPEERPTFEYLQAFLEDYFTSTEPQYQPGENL
In words: Phospho Src(Y416) Sandwich ELISA. The class given is cell-based. The settings on record: Panc1; read-out: pSrc EC50 (μM) Panc1. The procedure: E. Phospho Src(Y416) Sandwich ELISA
Phospho Src(Y416) Sandwich ELISA kit was obtained from Cell Signaling Tech.
(i) Reagent Preparation • 1. All microwell strips were brought to rt before use. • 2. 1× Wash Buffer was prepared by diluting 20× Wash Buffer (included in each PathScan® Sandwich ELISA Kit) in MilliQ® water or equivalently purified water. • 3. 1× Cell Lysis Buffer from CST #9803: 20 mM Tris (pH 7.5), 150 mM NaCl, 1 mM ethylene diamine tetraacetate (EDTA), 1 mM ethylene glycol-bis(2-aminoethyl)-N,N,N′,N′-tetraacetic acid (EGTA), 1% Triton™ X-100, 2.5 mM sodium pyrophosphate, 1 mM b-glycerophosphate, 1 mM Na3VO4, 1 μg/mL leupeptin. This buffer was stored at 4° C. for short-term use (1-2 weeks).
(ii) Preparing Cell Lysates • 1. The media was aspirated. The cells were treated by adding fresh media containing inhibitor for 1 h. The compound of Example 214 was used as reference. • 2. The cells were harvested under non-denaturing conditions by removing media and rinsing cells once with ice-cold PBS. • 3. PBS was removed, 0.5 mL ice-cold 1× Cell Lysis Buffer plus 1 mM phenylmethylsulfonylfluoride (PMSF) was added to each plate (10 cm in diameter) and the plate incubated on ice for 5 min. • 4. The cells were scraped off of the plate, transferred to an appropriate tube, and kept on ice. • 5. The lysates were sonicated on ice. • 6. Microcentrifugation was performed for 10 min at 4° C. and the supernatant transferred to a new tube. The supernatant was the cell lysate and was stored at −80° C. in single-use aliquots.
(iii) Test Procedure • 1. After the microwell strips reached rt, the required number of microwells were broken off. The microwells were placed in the strip holder. Unused microwells were resealed and stored at 4° C. immediately. • 2. 100 μL of Sample Diluent (supplied in each PathScan® Sandwich ELISA Kit, blue color) was added to a micro centrifuge tube. 100 μL of cell lysate was transferred into the tube and vortexed for a few seconds. […] Individual data sheets for each kit provided information regarding an appropriate dilution factor for lysates and kit assay results. However, dilution factors were titrated when specific cell lysates are used. • 3. 100 μL of each diluted cell lysate were added to the appropriate well. It was then sealed with tape and pressed firmly onto top of microwells. The plate was incubated for 2 h at 37° C. Alternatively, the plate was incubated overnight at 4° C., which gave the best detection of target protein. • 4. The tape was gently removed and the wells washed: • a. The plate contents were discarded into a receptacle. • b. Each well was washed 4 times with 1× Wash Buffer, 200 μL. • c. For each wash, plates were struck on fresh towels hard enough to remove the residual solution in each well, but wells were not allowed to completely dry at any time. • d. The underside of all wells was cleaned with a lint-free tissue. • 5. 100 μL of Detection Antibody (green color) was added to each well, sealed with tape and the plate incubated for 1 h at 37° C. • 6. The wash procedure was repeated as in Step 4. • 7. 100 μL of HRP-linked secondary antibody (red color) was added to each well, sealed with tape and the plate incubated plate for 30 min at 37° C. • 8. The wash procedure was repeated as in Step 4. • 9. 100 μL of TMB Substrate was added to each well, sealed with tape and the plate incubated for 10 min at 37° C. or 30 min at 25° C. • 10. 100 μL of STOP Solution was added to each well and shaken gently for a few seconds. Initial color of positive reaction was blue, which changed to yellow upon addition of STOP Solution. • 11. The results were read. • a. Visual Determination—read within 30 min after adding STOP Solution. • b. Spectrophotometric Determination—the underside of wells were wiped with a lint-free tissue and absorbance read at 450 nm within 30 min after adding STOP Solution.

The next assay deals with T4, recombinant human FAK1 (Homo sapiens, UniProt Q05397).
T4 construct: fused on or other part: N-terminal 6xHis tag
T4 sequence (Q05397 422-680 limits assumed): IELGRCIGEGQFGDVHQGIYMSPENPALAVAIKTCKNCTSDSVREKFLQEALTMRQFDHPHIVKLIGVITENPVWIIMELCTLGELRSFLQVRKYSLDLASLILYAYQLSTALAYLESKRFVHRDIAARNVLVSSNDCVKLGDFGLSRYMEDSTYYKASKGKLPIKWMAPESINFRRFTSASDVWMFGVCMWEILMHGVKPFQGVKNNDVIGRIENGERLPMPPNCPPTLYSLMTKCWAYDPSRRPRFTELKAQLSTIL
In words: FAK1 HTRF assay. The class given is biochemical. The essentials:
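IC50 values derive from HTRF % inhibition (ratio 665/620 nm, Eu–anti-phosphotyrosine 0.1 nM, SA-APC 12 nM). The kinase step ran 45 min at room temperature, pairing 10 nM His-FAK1(692–end) from baculovirus with 0.5 μM gastrin Tyr87 biotin-peptide and a reagent at 10 μM final, pH 7.4. Compound dilutions began at 10 μM.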

The next assay addresses T5, Recombinant Src enzyme (Homo sapiens, UniProt P12931).
T5 construct: purchased Millipore 14-326; host or cells: Sf21 insect cells
In words: Src HTRF assay. The class given is biochemical. A digest of the protocol: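 Run as for the FAK HTRF assay (same buffer, supplements, compound preparation and procedure), with dasatinib included. Reaction contained 0.5 μM biotin-tagged Tyk2 synthetic peptide, 5 nM Src made in Sf21 cells, and a pH7.4-buffer-prepared component at 10 μM final.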

Chain of JAK2 (O60674 whole entry, species assumed): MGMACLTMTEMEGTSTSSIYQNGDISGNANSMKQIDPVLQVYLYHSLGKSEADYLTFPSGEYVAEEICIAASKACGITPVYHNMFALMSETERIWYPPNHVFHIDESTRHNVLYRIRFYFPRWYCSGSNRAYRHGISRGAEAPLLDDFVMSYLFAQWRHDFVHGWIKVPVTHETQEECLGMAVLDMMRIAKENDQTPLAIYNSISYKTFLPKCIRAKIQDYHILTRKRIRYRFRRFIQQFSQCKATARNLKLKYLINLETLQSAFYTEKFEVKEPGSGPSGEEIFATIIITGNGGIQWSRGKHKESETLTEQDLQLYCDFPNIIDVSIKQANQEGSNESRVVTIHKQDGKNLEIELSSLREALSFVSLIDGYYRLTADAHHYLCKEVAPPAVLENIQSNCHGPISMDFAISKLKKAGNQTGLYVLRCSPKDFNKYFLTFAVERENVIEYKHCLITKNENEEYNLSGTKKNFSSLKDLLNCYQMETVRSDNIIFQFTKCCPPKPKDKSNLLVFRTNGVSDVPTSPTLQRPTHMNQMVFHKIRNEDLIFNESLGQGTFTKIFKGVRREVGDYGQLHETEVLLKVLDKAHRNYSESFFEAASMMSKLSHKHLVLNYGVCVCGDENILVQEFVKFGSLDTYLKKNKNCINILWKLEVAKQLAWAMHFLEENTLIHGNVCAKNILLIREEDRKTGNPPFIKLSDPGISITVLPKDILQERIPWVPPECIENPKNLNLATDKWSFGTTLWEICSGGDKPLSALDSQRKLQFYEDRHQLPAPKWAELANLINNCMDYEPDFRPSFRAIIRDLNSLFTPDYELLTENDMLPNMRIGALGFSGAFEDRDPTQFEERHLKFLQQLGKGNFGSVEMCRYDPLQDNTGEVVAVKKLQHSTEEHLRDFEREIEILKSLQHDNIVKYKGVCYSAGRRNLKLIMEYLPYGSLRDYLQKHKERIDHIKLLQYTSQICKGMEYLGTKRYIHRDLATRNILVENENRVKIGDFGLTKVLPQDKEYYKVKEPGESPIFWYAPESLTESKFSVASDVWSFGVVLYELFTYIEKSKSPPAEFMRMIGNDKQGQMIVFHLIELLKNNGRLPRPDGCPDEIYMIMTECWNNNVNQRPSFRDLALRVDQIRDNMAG
T5 sequence (P12931 whole entry): as the sequence (P12931 whole entry) above
T1 sequence (Q96GD4 whole entry): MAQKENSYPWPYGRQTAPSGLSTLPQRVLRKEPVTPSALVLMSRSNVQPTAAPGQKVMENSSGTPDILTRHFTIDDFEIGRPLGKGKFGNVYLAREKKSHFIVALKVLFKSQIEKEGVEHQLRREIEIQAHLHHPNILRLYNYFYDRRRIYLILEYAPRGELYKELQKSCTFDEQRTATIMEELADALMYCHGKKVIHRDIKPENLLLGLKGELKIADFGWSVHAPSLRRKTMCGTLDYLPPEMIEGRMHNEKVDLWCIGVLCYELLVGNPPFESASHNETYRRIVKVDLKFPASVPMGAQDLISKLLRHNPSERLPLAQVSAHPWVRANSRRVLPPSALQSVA

On to `C[C@H]1CN(c2ccc(Nc3ncc4ccn(S(=O)(=O)c5cccc(C#N)c5)c4n3)cc2)CCN1` [Example 306], for which the IC50 at JAK2 and on AURKB (Aurora B) enzyme was less than 20 nM throughout. Moreover, the EC50 in assay [1] was more than 1 µM.
Regarding `CN(C)S(=O)(=O)c1ccccc1Cn1ncc2cnc(Nc3ccc(N4CCNCC4)cc3)cc21` [Example 208], the IC50 on JAK2 is less than 20 nM. Also, the EC50 in assay [1] was more than 1 µM.
For `CN(c1ccccc1Cn1ccc2cnc(Nc3ccc(N4CCCC(O)C4)cc3)nc21)S(C)(=O)=O` (stereo not shown) [Example 750], the EC50 at Phospho Src(Y416) was more than 1 µM. Further, the IC50 on recombinant human FAK1 was less than 20 nM.
Consider `O=S(=O)(c1ccccc1)n1ccc2cnc(Nc3ccc(N4CCNCC4)cc3)nc21` [Example 224], for which the IC50 at JAK2, at Recombinant Src enzyme and at AURKB (Aurora B) enzyme was less than 20 nM in each case. The EC50 in assay [1] is more than 1 µM.
On to `COc1ccccc1Nc1ncc2ccn(Cc3cccnc3N(C)S(C)(=O)=O)c2n1` [Example 154], for which the IC50 at JAK2, at Recombinant Src enzyme and at AURKB (Aurora B) enzyme was more than 1000 nM in each case. Also, the half-maximal effective concentration (EC50) in assay [1] was more than 1 µM.
As for `N#Cc1ccccc1S(=O)(=O)n1ccc2cnc(Nc3ccc(N4CCNCC4)cc3)nc21` [Example 185], the IC50 at recombinant human FAK1, on JAK2 and at AURKB (Aurora B) enzyme was less than 20 nM in each case. Also, the EC50 in assay [1] is more than 1 µM.
For the compound `O=S(=O)(c1cccc2cccnc12)n1ccc2cnc(Nc3ccc(N4CCNCC4)cc3OC3CCC3)nc21` [Example 358], the IC50 on recombinant human FAK1, at JAK2 and on Recombinant Src enzyme was more than 1000 nM throughout. In assay [1], the EC50 was more than 1 µM.
As for `CC(=O)N1CCN(c2ccc(Nc3ncc4ccn(Cc5ccccc5N(C)S(C)(=O)=O)c4n3)cc2)C[C@H]1C` [Example 458], the EC50 at Phospho Src(Y416) is more than 1 µM. Also, the IC50 at recombinant human FAK1 is less than 20 nM.
On the same counts, the results for `COc1ccccc1S(=O)(=O)n1ccc2cnc(Nc3ccc(N4CCN(C(=O)C5CC5)CC4)cc3)nc21` [Example 350] are more than 1 µM and less than 20 nM.
`C[C@@H]1CN(c2ccc(Nc3ncc4ccn(S(=O)(=O)c5ccccc5C#N)c4n3)cc2)CCN1` [Example 243]: the IC50 at JAK2 and on AURKB (Aurora B) enzyme was less than 20 nM each time. Further, the EC50 in assay [1] is more than 1 µM.
For the compound `CC(=O)OC1CCN(c2ccc(Nc3ncc4ccn(S(=O)(=O)c5cccc6cccnc56)c4n3)cc2)CC1` [Example 454], the EC50 on Phospho Src(Y416) is more than 1 µM. Besides, at recombinant human FAK1, the IC50 was less than 20 nM.
Consider `CN(c1ncccc1Cn1ccc2cnc(Nc3ccc(N4CCCC(O)C4)cc3)nc21)S(C)(=O)=O` (stereo not shown) [Example 753], for which the EC50 on Phospho Src(Y416) was more than 1 µM.
Take `CC(=O)OC1CCN(c2ccc(Nc3ncc4c(n3)N(S(=O)(=O)c3cccc5cccnc35)CC4(C)C)cc2)CC1` [Example 453]: the EC50 at Phospho Src(Y416) is more than 1 µM.
`O=S(=O)(c1cccc2cccnc12)n1ncc2cnc(Nc3ccc(N4CCC(O)CC4)cc3)nc21` [Example 411]: at Phospho Src(Y416), the EC50 is more than 1 µM. The IC50 on recombinant human FAK1 was less than 20 nM.
`COc1cc(N2CCNCC2)ccc1Nc1cc2c(cn1)cnn2S(=O)(=O)c1cccc2cccnc12` [Example 338, N-(2-methoxy-4-(piperazin-1-yl)phenyl)-1-(quinolin-8-ylsulfonyl)-1H-pyrazolo[4,3-c]pyridin-6-amine]: the IC50 is less than 20 nM on recombinant human FAK1, more than 1000 nM at JAK2 and more than 1000 nM at Recombinant Src enzyme. In addition, the EC50 in assay [1] was less than 0.02 µM.
Regarding `C[C@H]1CN(c2ccc(Nc3ncc4c(n3)N(S(=O)(=O)c3cccc5cccnc35)CC4(C)C)cc2)CCN1` [Example 473], the EC50 on Phospho Src(Y416) is more than 1 µM. For the same compound, at recombinant human FAK1, the IC50 is less than 20 nM.
As for `Cc1cc(Nc2ncc3cnn(S(=O)(=O)c4cccc5cccnc45)c3n2)ccc1N1CCC(O)CC1` [Example 406], the EC50 on Phospho Src(Y416) is more than 1 µM. Also, on recombinant human FAK1, the IC50 is less than 20 nM.
Take `O=S(=O)(c1ccccc1)n1ncc2cnc(Nc3ccc(N4CCNCC4)cc3)nc21` [Example 255]: the EC50 at Phospho Src(Y416) was less than 0.02 µM.
Regarding `CN(c1ccccc1Cn1ccc2cnc(Nc3ccc(N4CCOCC4)cc3)nc21)S(C)(=O)=O` [Example 111], the IC50 on recombinant human FAK1 and on JAK2 was less than 20 nM in each case. For the same compound, in assay [1], the EC50 is more than 1 µM.
With `O=C1CCc2cc(Nc3ncc4ccn(S(=O)(=O)c5ccccc5OC(F)F)c4n3)ccc2N1` [Example 151], the EC50 at Phospho Src(Y416) is more than 1 µM. Besides, the IC50 on recombinant human FAK1 was less than 20 nM.
As for `CN(c1ccccc1Cn1ccc2cnc(Nc3ccc(OC4CNC4)cc3)nc21)S(C)(=O)=O` [Example 515], at JAK2, the IC50 is less than 20 nM. In assay [1], the EC50 was more than 1 µM.
On the same counts, the results for `C[C@H]1CNCCN1c1ccc(Nc2ncc3ccn(Cc4cccnc4N(C)S(C)(=O)=O)c3n2)cc1` [Example 320] are less than 20 nM and more than 1 µM.
As for `COc1cc(Nc2ncc3ccn(S(=O)(=O)c4cccc5cccnc45)c3n2)ccc1N1CCOCC1` [Example 432], the EC50 on Phospho Src(Y416) was more than 1 µM. Besides, the IC50 on recombinant human FAK1 was less than 20 nM.
In the case of `O=C1CCc2cc(Nc3cc4c(ccn4S(=O)(=O)c4ccccc4OC(F)(F)F)cn3)ccc2N1` [Example 59], the IC50 on JAK2, on Recombinant Src enzyme and on AURKB (Aurora B) enzyme was more than 1000 nM throughout. In addition, the EC50 in assay [1] was more than 1 µM.
As for `CN(C)S(=O)(=O)c1ccccc1Cn1ncc2cnc(Nc3ccc4c(c3)CCC(=O)N4)cc21` [Example 204], the IC50 at recombinant human FAK1, at JAK2 and on AURKB (Aurora B) enzyme was less than 20 nM in each case. In addition, the EC50 in assay [1] is more than 1 µM.
As to `CN(c1ccccc1Cn1ccc2cnc(Nc3ccc4[nH]c(=O)oc4c3)nc21)S(C)(=O)=O` [Example 457], at Phospho Src(Y416), the EC50 was more than 1 µM.
With `COc1cc(N2CCNCC2)ccc1Nc1ncc2ccn(S(=O)(=O)c3cccc4cccnc34)c2n1` [Example 327], the IC50 is less than 20 nM at recombinant human FAK1, more than 1000 nM at JAK2, more than 1000 nM at Recombinant Src enzyme and less than 20 nM at AURKB (Aurora B) enzyme.
For `O=S(=O)(c1cccc2cccnc12)n1ccc2cnc(Nc3ccc(N4CC5CC4CN5)cc3)cc21` (stereo not shown) [Example 329], the IC50 was less than 20 nM at recombinant human FAK1, more than 1000 nM on JAK2, more than 1000 nM on Recombinant Src enzyme and less than 20 nM at AURKB (Aurora B) enzyme.
